This passage reports MIC results from DBAASP.

Among the test systems are Pseudomonas aeruginosa; Escherichia coli; Staphylococcus aureus; Staphylococcus aureus MR; Bacillus subtilis; Escherichia coli ML-35p; Bacillus cereus; Leuconostoc lactis; Pasteurella multocida; Micrococcus luteus; Streptococcus uberis; Listeria innocua.
What all share (assay): ≥ marks a high value that may be exact or a test limit, other limits are often not marked, values filed in µg/mL are converted to µM
Assay [1] relates to Pseudomonas aeruginosa PAO1.
In assay [2] the test system is Candida albicans ATCC 2002.
For assay [3], the system named is Pseudomonas aeruginosa ATCC 27853.
For assay [4], the system named is Staphylococcus aureus ATCC 2592.
Assay [5] relates to Staphylococcus aureus ATCC 43300.
Assay [6] concerns Escherichia coli ATCC 25922.
Assay [7] has as its system Staphylococcus aureus ATCC 25923.
The subject of assay [8] is Pseudomonas aeruginosa CMCCB 10104.
Assay [9] deals with Staphylococcus epidermidis.

In brackets after ≈: the same amount, converted by molar mass.

In the case of `CC[C@H](C)[C@H](NC(=O)[C@H](C)NC(=O)[C@H](CC(C)C)NC(=O)[C@H](CS)NC(=O)[C@H](Cc1cnc[nH]1)NC(=O)[C@H](C)N)C(=O)NCC(=O)N[C@@H](CCCN=C(N)N)C(=O)N[C@@H](CCCCN)C(N)=O` [AHCLAIGRK], the minimum inhibitory concentration (MIC) against Pseudomonas aeruginosa is over 51.6 µM; against Escherichia coli it was 25.8 µM; in the assay with Staphylococcus aureus, 25.8 µM; in the assay on Staphylococcus aureus MR, at least 51.6 µM.
For `CC[C@H](C)[C@H](NC(=O)[C@H](C)NC(=O)[C@@H](NC(=O)[C@@H]1CCCN1C(=O)[C@H](CC(C)C)NC(=O)[C@@H](NC(=O)[C@H](CO)NC(=O)[C@@H](NC(=O)[C@H](C)NC(=O)[C@H](CCSC)NC(=O)[C@H](CCCCN)NC(=O)[C@H](CC(C)C)NC(=O)[C@@H](NC(=O)[C@@H]1CCCN1C(=O)CNC(=O)[C@@H](NC(=O)[C@@H](N)Cc1ccccc1)[C@@H](C)CC)C(C)C)[C@@H](C)O)[C@@H](C)CC)[C@@H](C)O)C(=O)N[C@H]1CSSC[C@@H](C(=O)O)NC(=O)[C@H](CCCCN)NC(=O)[C@H](CCCCN)NC(=O)[C@H](Cc2ccccc2)NC(=O)CNC(=O)[C@H](CCCCN)NC1=O` [FIGPVLKMATSILPTAICKGFKKC], the MIC was determined as 7.79 µM (≈ 20 µg/mL) in the assay on Bacillus subtilis; 19.5 µM (≈ 50 µg/mL) against Escherichia coli ML-35p; 3.9 µM (≈ 9.99 µg/mL) in [1]; 3.9 µM (≈ 9.99 µg/mL) in assay [2]; 1.95 µM (≈ 5 µg/mL) in assay [3]; 1.95 µM (≈ 5 µg/mL) in [4]. Further, the MIC in assay [5] came out at 3.9 µM (≈ 9.99 µg/mL).
Regarding `CC[C@H](C)[C@H](NC(=O)CN)C(=O)N[C@@H](CC(C)C)C(=O)N[C@@H](CO)C(=O)NCC(=O)N[C@H](C(=O)N[C@@H](CC(C)C)C(=O)NCC(=O)N[C@@H](CCSC)C(=O)NCC(=O)N[C@@H](CCCCN)C(=O)N[C@@H](CCCCN)C(=O)N[C@H](C(=O)N[C@H](C(=O)N[C@H]1CSSC[C@@H](C(=O)O)NC(=O)[C@H](CC(C)C)NC(=O)CNC(=O)[C@H](CCCN=C(N)N)NC(=O)[C@H](CC(C)C)NC(=O)CNC1=O)C(C)C)[C@@H](C)CC)C(C)C` [GILSGVLGMGKKIVCGLRGLC], the MIC in assay [6] was 3.47 µM (≈ 7.19 µg/mL); in assay [2], 3.47 µM (≈ 7.19 µg/mL); in assay [7] it was 1.74 µM (≈ 3.6 µg/mL); in assay [8], 6.84 µM (≈ 14.2 µg/mL).
Consider `CC[C@H](C)[C@H](NC(=O)[C@@H](NC(=O)[C@H](C)NC(=O)[C@H](Cc1ccccc1)NC(=O)[C@H](CC(C)C)NC(=O)CN)C(C)C)C(=O)N[C@@H](CCCCN)C(=O)N[C@@H](CCCCN)C(=O)N[C@H](C(=O)N[C@@H](C)C(=O)N[C@@H](CO)C(=O)N[C@H](C(=O)N[C@H](C(=O)N[C@@H](CCCCN)C(=O)NCC(=O)N[C@@H](CC(C)C)C(N)=O)[C@@H](C)CC)C(C)C)C(C)C` [GLFAVIKKVASVIKGL], for which the MIC in the assay with Bacillus cereus was 15.2 µM (≈ 25 µg/mL); in the assay on Leuconostoc lactis, 1.83 µM (≈ 3 µg/mL); against Pasteurella multocida, at least 60.9 µM; against Escherichia coli, 30.4 µM (≈ 50 µg/mL); against Micrococcus luteus it was 3.65 µM (≈ 6 µg/mL); in assay [9], 3.65 µM (≈ 6 µg/mL). Also, the MIC against Staphylococcus aureus was 7.3 µM (≈ 12 µg/mL); against Streptococcus uberis, 15.2 µM (≈ 25 µg/mL); against Listeria innocua, 7.3 µM (≈ 12 µg/mL).
As for `CC[C@H](C)[C@H](NC(=O)[C@H](CC(=O)O)NC(=O)[C@H](Cc1ccccc1)NC(=O)[C@H](CC(C)C)NC(=O)CN)C(=O)N[C@H](C(=O)N[C@@H](CCCCN)C(=O)N[C@@H](CCCCN)C(=O)N[C@H](C(=O)N[C@@H](C)C(=O)N[C@@H](CO)C(=O)N[C@H](C(=O)N[C@H](C(=O)NCC(=O)NCC(=O)N[C@@H](CC(C)C)C(N)=O)C(C)C)C(C)C)C(C)C)[C@@H](C)CC` [GLFDIIKKVASVVGGL], the MIC was 15.5 µM (≈ 25 µg/mL) in the assay with Bacillus cereus; 1.86 µM (≈ 3 µg/mL) with Leuconostoc lactis; at least 61.9 µM with Pasteurella multocida; over 61.9 µM in the assay with Escherichia coli; 7.43 µM (≈ 12 µg/mL) in the assay on Micrococcus luteus; 15.5 µM (≈ 25 µg/mL) in assay [9]. Besides, the MIC in the assay on Staphylococcus aureus was 15.5 µM (≈ 25 µg/mL); against Streptococcus uberis it was 7.43 µM (≈ 12 µg/mL); with Listeria innocua, at least 61.9 µM.
As to `CC[C@H](C)[C@H](NC(=O)[C@H](CO)NC(=O)CNC(=O)[C@H](C)NC(=O)[C@@H](NC(=O)[C@H](Cc1cnc[nH]1)NC(=O)CNC(=O)[C@H](C)NC(=O)[C@@H](NC(=O)[C@H](CCCCN)NC(=O)[C@H](CCCCN)NC(=O)[C@@H](NC(=O)[C@@H](NC(=O)[C@H](CC(=O)O)NC(=O)[C@H](Cc1ccccc1)NC(=O)[C@H](CC(C)C)NC(=O)CN)[C@@H](C)CC)C(C)C)[C@@H](C)CC)[C@@H](C)CC)C(N)=O` [GLFDIVKKIAGHIAGSI], the MIC with Bacillus cereus is at least 57.5 µM; against Leuconostoc lactis it was 6.9 µM (≈ 12 µg/mL); in the assay on Pasteurella multocida, at least 57.5 µM; against Escherichia coli, over 57.5 µM; against Micrococcus luteus it was at least 57.5 µM; in [9], at least 57.5 µM. In addition, the MIC in the assay with Staphylococcus aureus was 28.8 µM (≈ 50 µg/mL); against Streptococcus uberis, at least 57.5 µM; in the assay with Listeria innocua it was at least 57.5 µM.
On to `CC[C@H](C)[C@H](NC(=O)[C@@H](NC(=O)[C@H](CC(=O)O)NC(=O)[C@H](Cc1ccccc1)NC(=O)[C@H](CC(C)C)NC(=O)CN)C(C)C)C(=O)N[C@@H](C)C(=O)N[C@@H](CCCCN)C(=O)N[C@H](C(=O)N[C@@H](C)C(=O)N[C@@H](CO)C(=O)N[C@H](C(=O)N[C@H](C(=O)N[C@@H](CCCCN)C(=O)N[C@@H](CCCCN)C(=O)N[C@@H](CC(C)C)C(N)=O)[C@@H](C)CC)C(C)C)C(C)C` [GLFDVIAKVASVIKKL], for which the MIC with Bacillus cereus is 7.05 µM (≈ 12 µg/mL); in the assay with Leuconostoc lactis, 3.53 µM (≈ 6 µg/mL); with Pasteurella multocida, at least 58.8 µM; against Escherichia coli, 29.4 µM (≈ 50 µg/mL); against Micrococcus luteus, 7.05 µM (≈ 12 µg/mL); in assay [9], 3.53 µM (≈ 6 µg/mL). For the same compound, the MIC is 3.53 µM (≈ 6 µg/mL) against Staphylococcus aureus, 7.05 µM (≈ 12 µg/mL) in the assay with Streptococcus uberis and 14.7 µM (≈ 25 µg/mL) in the assay with Listeria innocua.
With `CC[C@H](C)[C@H](NC(=O)CNC(=O)[C@H](CCCCN)NC(=O)CNC(=O)[C@H](C)NC(=O)[C@H](Cc1ccccc1)NC(=O)[C@H](CCCCN)NC(=O)[C@H](CO)NC(=O)[C@H](Cc1ccccc1)NC(=O)[C@H](CC(C)C)NC(=O)CN)C(=O)N[C@@H](CCCCN)C(=O)N[C@@H](CC(N)=O)C(=O)N[C@@H](Cc1ccccc1)C(=O)N[C@@H](CC(C)C)C(=O)N[C@@H](CC(N)=O)C(=O)N[C@@H](CCCCN)C(=O)NCC(=O)N[C@H](C(=O)N[C@@H](CCCCN)C(=O)N[C@@H](Cc1cnc[nH]1)C(=O)N[C@H](C(=O)NCC(=O)N[C@@H](CCCCN)C(=O)N[C@@H](CCC(=O)O)C(=O)O)[C@@H](C)CC)C(C)C` [GLFSKFAGKGIKNFLNKGVKHIGKE], the MIC in assay [6] came to 1.55 µM (≈ 4.2 µg/mL); in [2] it was 0.773 µM (≈ 2.1 µg/mL); in [7] it was 1.55 µM (≈ 4.2 µg/mL); in assay [8] it was 0.773 µM (≈ 2.1 µg/mL).
Turning to `CC[C@H](C)[C@H](NC(=O)[C@@H](NC(=O)CNC(=O)[C@@H](NC(=O)[C@@H](NC(=O)[C@H](Cc1cnc[nH]1)NC(=O)[C@@H]1CCCN1C(=O)[C@H](CC(C)C)NC(=O)[C@@H](NC(=O)[C@H](Cc1cnc[nH]1)NC(=O)[C@H](CCCCN)NC(=O)[C@H](C)NC(=O)[C@@H](NC(=O)[C@H](CO)NC(=O)CNC(=O)[C@H](CC(C)C)NC(=O)[C@@H](NC(=O)[C@H](CO)NC(=O)[C@H](CC(C)C)NC(=O)[C@H](CC(C)C)NC(=O)CN)C(C)C)C(C)C)C(C)C)C(C)C)C(C)C)C(C)C)C(=O)N[C@@H](C)C(=O)N[C@@H](CCC(=O)O)C(=O)N[C@@H](Cc1cnc[nH]1)C(=O)N[C@@H](CC(C)C)C(N)=O` [GLLSVLGSVAKHVLPHVVGVIAEHL], the MIC in the assay with Bacillus cereus was at least 39.3 µM; against Leuconostoc lactis it was 4.91 µM (≈ 12.5 µg/mL); against Pasteurella multocida, 19.6 µM (≈ 50 µg/mL); against Escherichia coli, over 39.3 µM; with Micrococcus luteus, 4.91 µM (≈ 12.5 µg/mL); in assay [9], at least 39.3 µM. Also, the MIC against Staphylococcus aureus, against Streptococcus uberis and against Listeria innocua was 9.82 µM (≈ 25 µg/mL) throughout.
Regarding `CC[C@H](C)[C@H](NC(=O)[C@@H](NC(=O)CN)C(C)C)C(=O)N[C@@H](CC(=O)O)C(=O)N[C@@H](C)C(=O)N[C@@H](C)C(=O)N[C@@H](CCCCN)C(=O)N[C@@H](CCCCN)C(=O)N[C@H](C(=O)N[C@H](C(=O)N[C@@H](CC(N)=O)C(=O)N[C@H](C(=O)N[C@@H](CC(C)C)C(=O)N[C@@H](CCCCN)C(=O)N[C@@H](CC(N)=O)C(=O)N[C@@H](CC(C)C)C(=O)N1CCC[C@H]1C(N)=O)C(C)C)C(C)C)C(C)C` [GVIDAAKKVVNVLKNLP], the MIC in the assay on Bacillus cereus was 14.1 µM (≈ 25 µg/mL); with Leuconostoc lactis, 1.69 µM (≈ 3 µg/mL); against Pasteurella multocida, at least 56.2 µM; against Escherichia coli, over 56.2 µM; in the assay on Micrococcus luteus, 14.1 µM (≈ 25 µg/mL); in assay [9] it was 7.03 µM (≈ 12.5 µg/mL). Moreover, the MIC with Staphylococcus aureus was determined as 14.1 µM (≈ 25 µg/mL); against Streptococcus uberis, 7.03 µM (≈ 12.5 µg/mL); against Listeria innocua, 28.1 µM (≈ 50 µg/mL).
